Structures are written as SMILES. Where a name gives a salt, the structure may show the parent alone.

Here are results for 21 compounds from patent US11478478B2, “2,3-disubstituted 1-acyl-4-amino-1,2,3,4-tetrahydroquinoline derivatives and their use as bromodomain inhibitors” (GLAXOSMITHKLINE INTELLECTUAL PROPERTY (NO.2) LIMITED, priority 2013, dated 2022).

The target in this test is T1, BRD4 BD2 (Homo sapiens, UniProt O60885, Y97A).
T1 construct: BRD4 (1-477) (Y97A) and (Y390A); made in house; host or cells: E. coli (pET15b vector)
Briefly: TR-FRET binding assay, BRD4 BD2 (BD1-mutated protein). Conditions: read-out: pIC50 in the BRD4 BD2 assay (converted). On the procedure:
Time Resolved Fluorescence Resonance Energy Transfer (TR-FRET) Assay Binding was assessed using a time resolved fluorescent resonance energy transfer binding assay. This utilises a 6 His purification tag at the N-terminal of the proteins as an epitope for an anti-6 His antibody labeled with Europium chelate (PerkinElmer AD0111) allowing binding of the Europium to the proteins which acts as the donor fluorophore. A small molecule, high affinity binder of the bromodomains BRD2, BRD3, BRD4 and BRDT has been labeled with Alexa Fluor647 (Reference Compound X) and this acts as the acceptor in the FRET pair.
In the absence of a competing compound, excitation of the Europium causes the donor to emit at λ618 nm which excites the Alexa labelled bromodomain binding compound leading to an increased energy transfer that is measurable at λ647 nM. In the presence of a sufficient concentration of a compound that can bind these proteins, the interaction is disrupted leading to a quantifiable drop in fluorescent resonance energy transfer.
The binding of the compounds of formula (I) to Bromodomains BRD2, BRD3, BRD4 and BRDT was assessed using mutated proteins to detect differential binding to either Binding Domain 1 (BD1) or Binding Domain 2 (BD2) on the bromodomain. These single residue mutations in the acetyl lysine binding pocket greatly lower the affinity of the fluoroligand (Reference Compound X) for the mutated domain (>1000 fold selective for the non-mutated domain). Therefore in the final assay conditions, binding of the fluoroligand to the mutated domain cannot be detected and subsequently the assay is suitable to determine the binding of compounds to the single non-mutated bromodomain.
Recombinant Human Bromodomains [(BRD2 (1-473) (Y113A) and (Y386A), BRD3 (1-435) (Y73A) and (Y348A) BRD4 (1-477) (Y97A) and (Y390A) and BRDT (1-397) (Y66A) and (Y309A)] were expressed in E. coli cells (in pET15b vector for BRD2/3/4 and in pET28a vector for BRDT) with a 6-His tag at the N-terminal. The His-tagged Bromodomain pellet was resuspended in 50 mM HEPES (pH7.5), 300 mM NaCl, 10 mM imidazole & 1 μl/ml protease inhibitor cocktail and extracted from the E. coli cells using sonication and purified using a nickel sepharose high performance column, the proteins were washed and then eluted with a linear gradient of 0-500 mM imidazole with buffer 50 mM HEPES (pH7.5), 150 mM NaCl, 500 mM imidazole, over 20 column volumes. Final purification was completed by Superdex 200 prep grade size exclusion column. Purified protein was stored at −80° C. in 20 mM HEPES pH 7.5 and 100 mM NaCl. Protein identity was confirmed by peptide mass fingerprinting and predicted molecular weight confirmed by mass spectrometry.
All assay components were dissolved in buffer composition of 50 mM HEPES pH7.4, 50 mM NaCl, 5% Glycerol, 1 mM DTT and 1 mM CHAPS. The final concentration of bromodomain proteins were 10 nM and the Alexa Fluor647 ligand was at Kd. These components were premixed and 5 μl of this reaction mixture was added to all wells containing 50 nl of various concentrations of test compound or DMSO vehicle (0.5% DMSO final) in Greiner 384 well black low volume microtitre plates and incubated in dark for 30 minutes at rt. 5 μl of detection mixture containing 1.5 nM final concentration anti-6His Europium chelate was added to all wells and a further dark incubation of at least 30 minutes was performed. Plates were then read on the Envision platereader, (λex=317 nm, donor λem=615 nm; acceptor λem=665 nm; Dichroic LANCE dual). Time resolved fluorescent intensity measurements were made at both emission wavelengths and the ratio of acceptor/donor was calculated and used for data analysis. All data was normalized to the mean of 16 high (inhibitor control—Example 11 of WO 2011/054846A1) and 16 low (DMSO) control wells on each plate. A four parameter curve fit of the following form was then applied: y=a+((b−a)/(1+(10^/10^)^d) […]

Consider `CC(=O)N1c2ccc(N3CCC(C)C3)cc2[C@H](Nc2ccccc2)[C@@H](C)[C@@H]1C` (mixture of isomers) [Example 80, 1-((rac-2S,3R,4R)-2,3-dimethyl-6-(3-methylpyrrolidin-1-yl)-4-(phenylamino)-3,4-dihydroquinolin-1(2H)-yl)ethanone], for which the IC50 is 0.1 µM.

In the case of `CC(=O)N1c2ccc(N3CCCC3C)cc2[C@H](Nc2ccccc2)[C@@H](C)[C@@H]1C` (mixture of isomers) [Example 81, 1-((rac-2S,3R,4R)-2,3-dimethyl-6-(2-methylpyrrolidin-1-yl)-4-(phenylamino)-3,4-dihydroquinolin-1(2H)-yl)ethanone], the IC50 is 0.1 µM.

Regarding `CC(=O)N1c2ccc(C3=CCOCC3)cc2[C@H](Nc2cccc(C)n2)[C@@H](C)[C@@H]1C1CC1` (racemic) [Example 85, rac-1-((2S,3R,4R)-2-cyclopropyl-6-(3,6-dihydro-2H-pyran-4-yl)-3-methyl-4-((6-methylpyridin-2-yl)amino)-3,4-dihydroquinolin-1(2H)-yl)ethanone, formic acid salt], the IC50 was 0.1 µM.

For `CC(=O)N1c2ccc(C3=CCNCC3)cc2[C@H](Nc2cccc(C)n2)[C@@H](C)[C@@H]1C1CC1` (racemic) [Example 87, rac-1-((2S,3R,4R)-2-cyclopropyl-3-methyl-4-((6-methylpyridin-2-yl)amino)-6-(1,2,3,6-tetrahydropyridin-4-yl)-3,4-dihydroquinolin-1(2H)-yl)ethanone], the IC50 is 0.1 µM.

For `CC(=O)N1c2ccc(C3=CCOCC3)cc2[C@@H](Nc2ccccn2)[C@H](C)[C@H]1C1CC1` (racemic) [Example 92, rac-1-((2S,3R,4R)-2-cyclopropyl-6-(3,6-dihydro-2H-pyran-4-yl)-3-methyl-4-(pyridin-2-ylamino)-3,4-dihydroquinolin-1(2H)-yl)ethanone], the IC50 is 0.1 µM.

`CC(=O)N1c2ccc(N3CCNCC3)cc2[C@H](Nc2ccccc2)[C@@H](C)[C@@H]1C1CC1` (racemic) [Example 94, rac-1-((2S,3R,4R)-2-cyclopropyl-3-methyl-4-(phenylamino)-6-(piperazin-1-yl)-3,4-dihydroquinolin-1(2H)-yl)ethanone, hydrochloride]: the IC50 is 0.1 µM.

For `CC(=O)N1c2ccc(N3CCNC(C)C3)nc2[C@H](Nc2ccccc2)[C@@H](C)[C@@H]1C1CC1` (mixture of isomers) [Example 107, 1-((rac-2S,3R,4R)-2-cyclopropyyl-3-methyl-6-(3-methylpiperazin-1-yl)-4-(phenylamino)-3,4-dihydro-1,5-naphthyridin-1(2H)-yl)ethanone], the IC50 is 1 to 100 µM.

Consider `CC(=O)N1c2ccc(N3CCNCC3)nc2[C@H](Nc2ccccc2)[C@@H](C)[C@@H]1C1CC1` (racemic) [Example 108, rac-1-((2S,3R,4R)-2-cyclopropyl-3-methyl-4-(phenylamino)-6-(piperazin-1-yl)-3,4-dihydro-1,5-naphthyridin-1(2H)-yl)ethanone], for which the IC50 was 1 to 100 µM.

On to `CC(=O)N1c2ccc(N3CCC(N)CC3)nc2[C@H](Nc2ccccc2)[C@@H](C)[C@@H]1C1CC1` (racemic) [Example 109, rac-1-((2S,3R,4R)-6-(4-aminopiperidin-1-yl)-2-cyclopropyl-3-methyl-4-(phenylamino)-3,4-dihydro-1,5-naphthyridin-1(2H)-yl)ethanone], for which the IC50 is 1 to 100 µM.

Consider `CC(=O)N1c2ccc(N3CCOCC3)nc2[C@H](Nc2ccccc2)[C@@H](C)[C@@H]1C1CC1` (racemic) [Example 110, rac-1-((2S,3R,4R)-2-cyclopropyl-3-methyl-6-morpholino-4-(phenylamino)-3,4-dihydro-1,5-naphthyridin-1(2H)-yl)ethanone], for which the IC50 is 1 to 100 µM.

Take `COc1ccc2c(n1)[C@H](Nc1cccc(C)n1)[C@@H](C)[C@H](C1CC1)N2C(C)=O` (racemic) [Example 111, rac-1-((2S,3R,4R)-2-cyclopropyl-6-methoxy-3-methyl-4-((6-methylpyridin-2-yl)amino)-3,4-dihydro-1,5-naphthyridin-1(2H)-yl)ethanone]: the IC50 is 1 to 100 µM.

On to `CC(=O)N1c2ccc(O)nc2[C@H](Nc2cccc(C)n2)[C@@H](C)[C@@H]1C1CC1` (racemic) [Example 112, rac-1-((2S,3R,4R)-2-cyclopropyl-6-hydroxy-3-methyl-4-((6-methylpyridin-2-yl)amino)-3,4-dihydro-1,5-naphthyridin-1(2H)-yl)ethanone], for which the IC50 was 1 to 100 µM.

Take `CC(=O)N1c2cccnc2[C@H](Nc2cccc(C)n2)[C@@H](C)[C@@H]1C1CC1` (racemic) [Example 113, rac-1-((2S,3R,4R)-2-cyclopropyl-3-methyl-4-((6-methylpyridin-2-yl)amino)-3,4-dihydro-1,5-naphthyridin-1(2H)-yl)ethanone]: the IC50 is 1 to 100 µM.

In the case of `CC(=O)N1c2cnccc2[C@H](Nc2ccccc2)[C@@H](C)[C@@H]1C` (racemic) [Example 115, rac-1-((2S,3R,4R)-2,3-dimethyl-4-(phenylamino)-3,4-dihydro-1,7-naphthyridin-1(2H)-yl)ethanone formate], the IC50 was 0.1 µM.

Turning to `CC(=O)N1c2ccccc2[C@H](Oc2ccccc2)[C@@H](C)[C@@H]1C1CC1` (racemic) [Example 119, rac-1-((2S,3S,4R)-2-cyclopropyl-3-methyl-4-phenoxy-3,4-dihydroquinolin-1(2H)-yl)ethanone], the IC50 is 0.1 µM.

For `CC(=O)N1c2ccccc2[C@H](Nc2cccc(CN)c2)[C@@H](C)[C@@H]1C1CC1` (racemic) [Example 124, rac-1-((2S,3R,4R)-4-((3-(aminomethyl)phenyl)amino)-2-cyclopropyl-3-methyl-3,4-dihydroquinolin-1(2H)-yl)ethanone, hydrochloride], the IC50 is 0.1 µM.

Take `CC(=O)N1c2ccccc2[C@H](Nc2ccc(C(=O)O)cc2)[C@@H](C)[C@@H]1C1CC1` (racemic) [Example 127, rac-4-(((2S,3R,4R)-1-acetyl-2-cyclopropyl-3-methyl-1,2,3,4-tetrahydroquinolin-4-yl)amino)benzoic acid]: the IC50 is 1 to 100 µM.

In the case of `CNCCn1cc(-c2ccc3c(c2)[C@H](Nc2ccc(C#N)cc2)[C@@H](C)[C@H](C2CC2)N3C(C)=O)cn1` (racemic) [Example 134, rac-4-(((2S,3R,4R)-1-acetyl-2-cyclopropyl-3-methyl-6-(1-(2-(methylamino)ethyl)-1H-pyrazol-4-yl)-1,2,3,4-tetrahydroquinolin-4-yl)amino)benzonitrile], the IC50 is 0.1 µM.

With `CC(=O)N1c2ccc(F)cc2[C@H](Nc2ccc(C#N)cc2)[C@@H](C)[C@@H]1C` (racemic) [Example 139, rac-4-(((2S,3R,4R)-1-acetyl-6-fluoro-2,3-dimethyl-1,2,3,4-tetrahydroquinolin-4-yl)amino)benzonitrile], the IC50 is 0.1 µM.

As for `CC(=O)N1c2ccc(F)cc2[C@H](Nc2ccc(F)cn2)[C@@H](C)[C@@H]1C` (racemic) [Example 141, rac-1-((2S,3R,4R)-6-fluoro-4-((5-fluoropyridin-2-yl)amino)-2,3-dimethyl-3,4-dihydroquinolin-1(2H)-yl)ethanone], the IC50 is 0.1 µM.

Turning to `CC(=O)N1c2ccc(F)cc2[C@H](Nc2ccc(C#N)cn2)[C@@H](C)[C@@H]1C` (racemic) [Example 143, rac-6-(((2S,3R,4R)-1-acetyl-6-fluoro-2,3-dimethyl-1,2,3,4-tetrahydroquinolin-4-yl)amino)nicotinonitrile], the IC50 is 0.1 µM.
